The record followed here is patent US10519177B2, “Heterocyclic compounds and uses thereof” (Plexxikon Inc., priority 2013, dated 2019).

This assay concerns the target BRD4-BD1 (44-164) (Homo sapiens (Human), UniProt O60885). Nature of the assay: Alphascreen binding assay BRD4-BD1. The following applies: BRD4(1) H4; read-out: Biochemical activity (IC50 μM) BRD4(1) H4. The procedure, abridged: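 His-tagged E. coli-expressed BRD4 BD1 (44-164) or BD1-BD2 (1-477) incubated 1 h at room temperature with biotinylated tetra-acetylated histone H4 1-21 peptide and compound in HEPES pH 7.5, NaCl, BSA, Triton X-100, DTT buffer. Ni-chelate/streptavidin AlphaScreen beads (7.5 µg/ml) added, read after 30 min; pIC50 from four-parameter fit.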
Background: Bead proximity is the source of the signal in Alpha formats.

Bounds are passed on as bounds.

The term IC50 denotes the concentration at which inhibition is half-maximal.

With `C=CCn1cc(-c2cn(S(=O)(=O)C(C)CC)c3cc(-c4c(C)noc4C)cnc23)cn1` (centres unmarked) [P-0138, 4-[3-(1-allylpyrazol-4-yl)-1-sec-butyl-sulfonyl-pyrrolo[3,2-b]pyridin-6-yl]-3,5-dimethyl-isoxazole], the IC50 is under 1 µM.

`C=CCn1cc(-c2cn(S(=O)(=O)C3CC3)c3cc(-c4c(C)noc4C)cnc23)cn1` [P-0139, 4-[3-(1-allylpyrazol-4-yl)-1-cyclopropyl-sulfonyl-pyrrolo[3,2-b]pyridin-6-yl]-3,5-dimethyl-isoxazole]: the IC50 is under 1 µM.

Consider `C=CCn1cc(-c2cn(S(=O)(=O)CC3CC3)c3cc(-c4c(C)noc4C)cnc23)cn1` [P-0140, 4-[3-(1-allylpyrazol-4-yl)-1-(cyclopropyl-methylsulfonyl)pyrrolo[3,2-b]pyridin-6-yl]-3,5-dimethyl-isoxazole], for which the IC50 was under 1 µM.

In the case of `Cc1noc(C)c1-c1cnc2[nH]cc(Sc3cccc(F)c3)c2c1` [P-0141, 4-[3-(3-fluorophenyl)sulfanyl-1H-pyrrolo[2,3-b]pyridin-5-yl]-3,5-dimethyl-isoxazole], the IC50 was under 1 µM.

Regarding `Cc1noc(C)c1-c1cnc2[nH]cc([S+]([O-])c3cccc(F)c3)c2c1` (centres unmarked) [P-0142, 4-[3-(3-fluorophenyl)sulfinyl-1H-pyrrolo[2,3-b]pyridin-5-yl]-3,5-dimethyl-isoxazole], the IC50 was under 1 µM.

With `Cc1noc(C)c1-c1cnc2[nH]cc(S(=O)(=O)c3cccc(F)c3)c2c1` [P-0143, 4-[3-(3-fluorophenyl)sulfonyl-1H-pyrrolo[2,3-b]pyridin-5-yl]-3,5-dimethyl-isoxazole], the concentration for half-maximal inhibition (IC50) was under 1 µM.

In the case of `Cc1noc(C)c1-c1cnc2[nH]cc(Sc3ccccc3)c2c1` [P-0144, 3,5-dimethyl-4-(3-phenylsulfanyl-1H-pyrrolo[2,3-b]pyridin-5-yl)isoxazole], the IC50 was under 1 µM.

For `Cc1noc(C)c1-c1cnc2[nH]cc(S(=O)(=O)c3ccccc3)c2c1` [P-0145, 4-[3-(benzenesulfonyl)-1H-pyrrolo[2,3-b]pyridin-5-yl]-3,5-dimethyl-isoxazole], the IC50 was under 1 µM.

Turning to `Cc1noc(C)c1-c1cnc2c(-c3cnn(CC(F)(F)F)c3)cn(S(=O)(=O)c3ccccc3)c2c1` [P-0146, 4-[1-(benzenesulfonyl)-3-[1-(2,2,2-trifluoroethyl)pyrazol-4-yl]pyrrolo[3,2-b]pyridin-6-yl]-3,5-dimethyl-isoxazole], the IC50 is under 1 µM.

In the case of `COCCn1cc(-c2cn(S(=O)(=O)c3ccccc3)c3cc(-c4c(C)noc4C)cnc23)cn1` [P-0147, 4-[1-(benzenesulfonyl)-3-[1-(2-methoxyethyl)pyrazol-4-yl]pyrrolo[3,2-b]pyridin-6-yl]-3,5-dimethyl-isoxazole], the IC50 was under 1 µM.

For `Cc1noc(C)c1-c1cnc2c(-c3cnn(C4CCOC4)c3)cn(S(=O)(=O)c3ccccc3)c2c1` (centres unmarked) [P-0148, 4-[1-(benzenesulfonyl)-3-(1-tetrahydrofuran-3-ylpyrazol-4-yl)pyrrolo[3,2-b]pyridin-6-yl]-3,5-dimethyl-isoxazole], the IC50 was under 1 µM.

Consider `Cc1noc(C)c1-c1cnc2c(-c3cnn(CC(F)(F)F)c3)cn(S(=O)(=O)C3CCCC3)c2c1` [P-0149, 4-[1-cyclopentyl-sulfonyl-3-[1-(2,2,2-trifluoroethyl)pyrazol-4-yl]pyrrolo[3,2-b]pyridin-6-yl]-3,5-dimethyl-isoxazole], for which the IC50 is under 1 µM.

For `CCCS(=O)(=O)n1cc(-c2cnn(CC(F)(F)F)c2)c2ncc(-c3c(C)noc3C)cc21` [P-0150, 3,5-dimethyl-4-[1-propylsulfonyl-3-[1-(2,2,2-trifluoroethyl)pyrazol-4-yl]pyrrolo[3,2-b]pyridin-6-yl]isoxazole], the IC50 was under 1 µM.

Consider `COCCn1cc(-c2cn(S(=O)(=O)C3CCCC3)c3cc(-c4c(C)noc4C)cnc23)cn1` [P-0151, 4-[1-cyclopentyl-sulfonyl-3-[1-(2-methoxyethyl)pyrazol-4-yl]pyrrolo[3,2-b]pyridin-6-yl]-3,5-dimethyl-isoxazole], for which the IC50 was under 1 µM.

Turning to `CCCS(=O)(=O)n1cc(-c2cnn(CCOC)c2)c2ncc(-c3c(C)noc3C)cc21` [P-0152, 4-[3-[1-(2-methoxy-ethyl)pyrazol-4-yl]-1-propylsulfonyl-pyrrolo[3,2-b]pyridin-6-yl]-3,5-dimethyl-isoxazole], the IC50 was under 1 µM.

Turning to `Cc1noc(C)c1-c1cnc2c(-c3cnn(C4CCOC4)c3)cn(S(=O)(=O)C3CCCC3)c2c1` (centres unmarked) [P-0153, 4-[1-cyclopentyl-sulfonyl-3-(1-tetrahydrofuran-3-ylpyrazol-4-yl)pyrrolo[3,2-b]pyridin-6-yl]-3,5-dimethyl-isoxazole], the IC50 is under 1 µM.

As to `CCCS(=O)(=O)n1cc(-c2cnn(C3CCOC3)c2)c2ncc(-c3c(C)noc3C)cc21` (centres unmarked) [P-0154, 3,5-dimethyl-4-[1-propylsulfonyl-3-(1-tetrahydrofuran-3-ylpyrazol-4-yl)pyrrolo[3,2-b]pyridin-6-yl]isoxazole], the IC50 was under 1 µM.

Regarding `Cc1noc(C)c1-c1cnc2c(C#CCO)cn(S(=O)(=O)c3ccccc3)c2c1` [P-0155, 3-[1-(benzenesulfonyl)-6-(3,5-dimethylisoxazol-4-yl)pyrrolo[3,2-b]pyridin-3-yl]prop-2-yn-1-ol], the IC50 was under 1 µM.

With `Cc1noc(C)c1-c1cnc2c(C#CCO)cn(S(=O)(=O)C3CCCC3)c2c1` [P-0156, 3-[1-cyclopentylsulfonyl-6-(3,5-dimethylisoxazol-4-yl)pyrrolo[3,2-b]pyridin-3-yl]prop-2-yn-1-ol], the IC50 was under 1 µM.

On to `Cc1noc(C)c1-c1cnc2c(C#CCF)cn(S(=O)(=O)C3CCCC3)c2c1` [P-0158, 4-[1-cyclopentylsulfonyl-3-(3-fluoroprop-1-ynyl)pyrrolo[3,2-b]pyridin-6-yl]-3,5-dimethyl-isoxazole], for which the IC50 was under 1 µM.

Take `Cc1noc(C)c1-c1cnc2ccn(C(C)c3ccccc3)c2c1` (centres unmarked) [P-0159, 3,5-dimethyl-4-[1-(1-phenylethyl)pyrrolo[3,2-b]pyridin-6-yl]isoxazole]: the IC50 is under 1 µM.

Take `C=CCn1cc(-c2cn(Cc3ccccc3)c3cc(-c4c(C)noc4C)cnc23)cn1` [P-0160, 4-[3-(1-allylpyrazol-4-yl)-1-benzyl-pyrrolo[3,2-b]pyridin-6-yl]-3,5-dimethyl-isoxazole]: the IC50 is under 1 µM.

`Cc1noc(C)c1-c1cnc2c(-c3cnn(C)c3)cn(C(C)c3ccccc3)c2c1` (centres unmarked) [P-0161, 3,5-dimethyl-4-[3-(1-methylpyrazol-4-yl)-1-(1-phenylethyl)pyrrolo[3,2-b]pyridin-6-yl]isoxazole]: the IC50 is under 1 µM.

For the molecule `Cc1noc(C)c1-c1cnc2ccn(Cc3ccccc3)c2c1` [P-0162, 4-(1-benzylpyrrolo[3,2-b]pyridin-6-yl)-3,5-dimethyl-isoxazole], the IC50 was under 1 µM.

Turning to `Cc1noc(C)c1-c1cnc2c(-c3cn[nH]c3)cn(S(=O)(=O)c3ccccc3)c2c1` [P-0163, 4-[1-(benzenesulfonyl)-3-(1H-pyrazol-4-yl)pyrrolo[3,2-b]pyridin-6-yl]-3,5-dimethyl-isoxazole], the IC50 was under 1 µM.

Turning to `Cc1noc(C)c1-c1cnc2[nH]cc(P(C)(=O)c3ccccc3)c2c1` (centres unmarked) [P-0165, 3,5-dimethyl-4-[3-[methyl(phenyl)phosphoryl]-1H-pyrrolo[2,3-b]pyridin-5-yl]isoxazole], the IC50 is under 1 µM.

On to `Cc1noc(C)c1-c1cnc2[nH]cc(P(=O)(c3ccccc3)c3ccccc3)c2c1` [P-0166, 4-(3-diphenylphosphoryl-1H-pyrrolo[2,3-b]pyridin-5-yl)-3,5-dimethyl-isoxazole], for which the IC50 was under 1 µM.

For the molecule `Cc1noc(C)c1-c1cnc2c(-c3cn[nH]c3)cn(S(=O)(=O)C3CCCC3)c2c1` [P-0167, 4-[1-cyclopentylsulfonyl-3-(1H-pyrazol-4-yl)pyrrolo[3,2-b]pyridin-6-yl]-3,5-dimethyl-isoxazole], the IC50 was under 1 µM.

Turning to `Cc1noc(C)c1-c1cnc2c(-c3cnn(C4CCCCO4)c3)cn(S(=O)(=O)c3ccccc3)c2c1` (centres unmarked) [P-0168, 4-[1-(benzenesulfonyl)-3-(1-tetrahydropyran-2-ylpyrazol-4-yl)pyrrolo[3,2-b]pyridin-6-yl]-3,5-dimethyl-isoxazole], the IC50 was under 1 µM.

Consider `Cc1nc(Cn2cc(-c3cnn(C)c3)c3ncc(-c4c(C)noc4C)cc32)cs1` [P-0170, 3,5-dimethyl-4-[3-(1-methylpyrazol-4-yl)-1-[(2-methylthiazol-4-yl)methyl]pyrrolo[3,2-b]pyridin-6-yl]isoxazole], for which the IC50 is under 1 µM.

As for `Cc1noc(C)c1-c1cnc2c(-c3cnn(C)c3)cn(Cc3cscn3)c2c1` [P-0171, 3,5-dimethyl-4-[3-(1-methylpyrazol-4-yl)-1-(thiazol-4-ylmethyl)pyrrolo[3,2-b]pyridin-6-yl]isoxazole], the IC50 was under 1 µM.

Regarding `Cc1noc(C)c1-c1cnc2c(-c3cnn(C)c3)cn(Cc3ccccc3F)c2c1` [P-0172, 4-[1-[(2-fluorophenyl)methyl]-3-(1-methylpyrazol-4-yl)pyrrolo[3,2-b]pyridin-6-yl]-3,5-dimethyl-isoxazole], the IC50 is under 1 µM.

`Cc1noc(C)c1-c1cnc2c(-c3cnn(C)c3)cn(Cc3c(F)cccc3F)c2c1` [P-0173, 4-[1-[(2,6-difluorophenyl)methyl]-3-(1-methylpyrazol-4-yl)pyrrolo[3,2-b]pyridin-6-yl]-3,5-dimethyl-isoxazole]: the IC50 is under 1 µM.

As to `Cc1noc(C)c1-c1cnc2c(-c3cnn(C(F)F)c3)cn(Cc3ccccc3F)c2c1` [P-0176, 4-[3-[1-(difluoromethyl)pyrazol-4-yl]-1-[(2-fluorophenyl)methyl]pyrrolo[3,2-b]pyridin-6-yl]-3,5-dimethyl-isoxazole], the IC50 was under 1 µM.

With `Cc1noc(C)c1-c1cnc2c(-c3cnn(C(F)F)c3)cn(C(C)c3ccccc3)c2c1` (centres unmarked) [P-0177, 4-[3-[1-(difluoromethyl)pyrazol-4-yl]-1-(1-phenylethyl)pyrrolo[3,2-b]pyridin-6-yl]-3,5-dimethyl-isoxazole], the IC50 was under 1 µM.
